Data: ChEMBL document CHEMBL1255373, “In vitro antibacterial activity of CE-156811, a novel analog derived from hygromycin A” (2008)
Converted amounts (≈) assume the structure as drawn.

Experiments:
Assay type in all cases: functional
Moraxella catarrhalis = experiment: Antibacterial activity against Moraxella catarrhalis clinical isolate by broth microdilution method
Haemophilus influenzae = experiment: Antibacterial activity against Haemophilus influenzae clinical isolate by broth microdilution method
Klebsiella oxytoca = experiment: Antibacterial activity against Klebsiella oxytoca clinical isolate by broth microdilution method
Citrobacter freundii = experiment: Antibacterial activity against Citrobacter freundii clinical isolate by broth microdilution method
Serratia marcescens = experiment: Antibacterial activity against Serratia marcescens clinical isolate by broth microdilution method
Enterobacter cloacae = experiment: Antibacterial activity against Enterobacter cloacae clinical isolate by broth microdilution method
Proteus vulgaris = experiment: Antibacterial activity against Proteus vulgaris clinical isolate by broth microdilution method
Acinetobacter sp. = experiment: Antibacterial activity against Acinetobacter sp. by broth microdilution method
Proteus mirabilis = experiment: Antibacterial activity against Proteus mirabilis clinical isolate by broth microdilution method
Klebsiella pneumoniae [1] = experiment: Antibacterial activity against Klebsiella pneumoniae clinical isolate by broth microdilution method
Pseudomonas aeruginosa = experiment: Antibacterial activity against Pseudomonas aeruginosa clinical isolate by broth microdilution method
Escherichia coli = experiment: Antibacterial activity against Escherichia coli clinical isolate by broth microdilution method
Citrobacter koseri = experiment: Antibacterial activity against Citrobacter diversus clinical isolate by broth microdilution method
[2] = system: Stenotrophomonas maltophilia; experiment: Antibacterial activity against Stenotrophomonas maltophilia clinical isolate by broth microdilution method
Burkholderia cepacia = experiment: Antibacterial activity against Burkholderia cepacia clinical isolate by broth microdilution method
Salmonella sp. = experiment: Antibacterial activity against Salmonella sp. by broth microdilution method
Shigella sp. = experiment: Antibacterial activity against Shigella sp. by broth microdilution method
Klebsiella aerogenes = experiment: Antibacterial activity against Enterobacter aerogenes clinical isolate by broth microdilution method
Morganella morganii = experiment: Antibacterial activity against Morganella morganii clinical isolate by broth microdilution method
Klebsiella pneumoniae [3] = experiment: Antibacterial activity against extended-spectrum beta-lactamase producing Klebsiella pneumoniae clinical isolate by broth microdilution method
Providencia rettgeri = experiment: Antibacterial activity against Providencia rettgeri clinical isolate by broth microdilution method
Neisseria sp. = experiment: Antibacterial activity against Neisseria sp. by broth microdilution method
Corynebacterium sp. = experiment: Antibacterial activity against Corynebacterium sp. by broth microdilution method
Legionella pneumophila = experiment: Antibacterial activity against Legionella pneumophila clinical isolate by broth microdilution method
Staphylococcus = experiment: Antibacterial activity against coagulase-negative Staphylococcus clinical isolate by broth microdilution method
Streptococcus pyogenes = experiment: Antibacterial activity against Streptococcus pyogenes clinical isolate by broth microdilution method
Listeria monocytogenes = experiment: Antibacterial activity against Listeria monocytogenes clinical isolate by broth microdilution method

## CC1(C)S[C@@H]2[C@H](NC(=O)[C@H](N)c3ccc(O)cc3)C(=O)N2[C@H]1C(=O)O [AMOXICILLIN]
Moraxella catarrhalis
  MIC50: 1 µg/mL (≈ 2.74 µM)
  MIC90: 8 µg/mL (≈ 21.9 µM)
Haemophilus influenzae
  MIC50: 2 µg/mL (≈ 5.47 µM)
  MIC90: 32 µg/mL (≈ 87.6 µM)

## CC(C)(O/N=C(\C(=O)N[C@@H]1C(=O)N2C(C(=O)[O-])=C(C[n+]3ccccc3)CS[C@H]12)c1csc(N)n1)C(=O)O [CEFTAZIDIME]
Klebsiella oxytoca
  MIC50: 0.5 µg/mL (≈ 0.915 µM)
  MIC90: > 64 µg/mL
Citrobacter freundii
  MIC50: 0.5 µg/mL (≈ 0.915 µM)
  MIC90: > 64 µg/mL
Serratia marcescens
  MIC50: 0.5 µg/mL (≈ 0.915 µM)
  MIC90: > 64 µg/mL
Enterobacter cloacae
  MIC50: 0.5 µg/mL (≈ 0.915 µM)
  MIC90: > 64 µg/mL
Proteus vulgaris
  MIC50: 0.5 µg/mL (≈ 0.915 µM)
  MIC90: > 64 µg/mL
Acinetobacter sp.
  MIC50: 16 µg/mL (≈ 29.3 µM)
  MIC90: > 64 µg/mL
Proteus mirabilis
  MIC50: 0.5 µg/mL (≈ 0.915 µM)
  MIC90: > 64 µg/mL
Klebsiella pneumoniae [1]
  MIC50: 0.5 µg/mL (≈ 0.915 µM)
  MIC90: > 64 µg/mL
Pseudomonas aeruginosa
  MIC50: 16 µg/mL (≈ 29.3 µM)
  MIC90: > 64 µg/mL
Escherichia coli
  MIC50: 0.5 µg/mL (≈ 0.915 µM)
  MIC90: > 64 µg/mL
Citrobacter koseri
  MIC50: 0.5 µg/mL (≈ 0.915 µM)
  MIC90: > 64 µg/mL
[2]
  MIC50: 16 µg/mL (≈ 29.3 µM)
  MIC90: > 64 µg/mL
Burkholderia cepacia
  MIC50: 16 µg/mL (≈ 29.3 µM)
  MIC90: > 64 µg/mL
Salmonella sp.
  MIC50: 0.5 µg/mL (≈ 0.915 µM)
  MIC90: > 64 µg/mL
Shigella sp.
  MIC50: 0.5 µg/mL (≈ 0.915 µM)
  MIC90: > 64 µg/mL
Klebsiella aerogenes
  MIC50: 0.5 µg/mL (≈ 0.915 µM)
  MIC90: > 64 µg/mL
Morganella morganii
  MIC50: 0.5 µg/mL (≈ 0.915 µM)
  MIC90: > 64 µg/mL
Klebsiella pneumoniae [3]
  MIC50: 0.5 µg/mL (≈ 0.915 µM)
  MIC90: > 64 µg/mL
Providencia rettgeri
  MIC50: 0.5 µg/mL (≈ 0.915 µM)
  MIC90: > 64 µg/mL

## C[C@H]1COc2c(N3CCN(C)CC3)c(F)cc3c(=O)c(C(=O)O)cn1c23.C[C@H]1COc2c(N3CCN(C)CC3)c(F)cc3c(=O)c(C(=O)O)cn1c23.O [LEVOFLOXACIN]
Klebsiella oxytoca
  MIC50: 0.06 µg/mL
  MIC90: 8 µg/mL
Citrobacter freundii
  MIC50: 0.06 µg/mL
  MIC90: 8 µg/mL
Serratia marcescens
  MIC50: 0.06 µg/mL
  MIC90: 8 µg/mL
Enterobacter cloacae
  MIC50: 0.06 µg/mL
  MIC90: 8 µg/mL
Neisseria sp.
  MIC50: 0.008 µg/mL
  MIC90: 0.008 µg/mL
Corynebacterium sp.
  MIC50: 0.5 µg/mL
  MIC90: 32 µg/mL
Proteus vulgaris
  MIC50: 0.06 µg/mL
  MIC90: 8 µg/mL
Legionella pneumophila
  MIC50: 0.004 µg/mL
  MIC90: 0.015 µg/mL
Acinetobacter sp.
  MIC50: 2 µg/mL
  MIC90: 16 µg/mL
Staphylococcus
  MIC50: 0.25 µg/mL
  MIC90: 32 µg/mL
Proteus mirabilis
  MIC50: 0.06 µg/mL
  MIC90: 8 µg/mL
Klebsiella pneumoniae [1]
  MIC50: 0.06 µg/mL
  MIC90: 8 µg/mL
Pseudomonas aeruginosa
  MIC50: 2 µg/mL
  MIC90: 16 µg/mL
Moraxella catarrhalis
  MIC50: 0.06 µg/mL
  MIC90: 0.06 µg/mL
Escherichia coli
  MIC50: 0.06 µg/mL
  MIC90: 8 µg/mL
Citrobacter koseri
  MIC50: 0.06 µg/mL
  MIC90: 8 µg/mL
[2]
  MIC50: 2 µg/mL
  MIC90: 16 µg/mL
Burkholderia cepacia
  MIC50: 2 µg/mL
  MIC90: 16 µg/mL
Haemophilus influenzae
  MIC50: 0.015 µg/mL
  MIC90: 0.25 µg/mL
Salmonella sp.
  MIC50: 0.06 µg/mL
  MIC90: 8 µg/mL
Shigella sp.
  MIC50: 0.06 µg/mL
  MIC90: 8 µg/mL
Klebsiella aerogenes
  MIC50: 0.06 µg/mL
  MIC90: 8 µg/mL
Streptococcus pyogenes
  MIC50: 0.5 µg/mL
  MIC90: 2 µg/mL
Listeria monocytogenes
  MIC50: 1 µg/mL
  MIC90: 1 µg/mL
Morganella morganii
  MIC50: 0.06 µg/mL
  MIC90: 8 µg/mL
Klebsiella pneumoniae [3]
  MIC50: 0.06 µg/mL
  MIC90: 8 µg/mL
Providencia rettgeri
  MIC50: 0.06 µg/mL
  MIC90: 8 µg/mL
